The values that follow come from patent US6664241B2, “Water-soluble amide derivatives of polyene macrolides and preparation and uses thereof” (Micrologix Biotech Inc., priority 2000, dated 2003).

For data set [1], the system named is C. albicans. The data set is described as follows: 5 day kidney bioburden evaluation in immunocompetent mice challenged with C. albicans. The format is in vivo, Swiss-Webster mice. Conditions: for effective in % of mice: greater than 2 log10 reduction in kidney CFU. On the procedure: (§1) A variety of the compounds synthesized as described in Section 5, supra, were tested in various in vivo assays, as described below. The results of the various assays are provided in TABLE 3, presented at the end of this section. In all of the in vivo assays described, the test compounds, in the form of the aspartate salts, were formulated in an aqueous vehicle (5% mannitol in sterile water; OSMITROL, Baxter Healthcare, Deerfield, Ill.), followed by appropriate dilutions. The formulations were prepared fresh before dosing.
(§2) AmB and AME were also tested for comparison. For AmB, the commercially available FUNGIZONE (Bristol-Meyers Squibb Co.) was used. Reported values are based upon the weight of the AmB active ingredient, not on the basis of the weight of the FUNGIZONE powder. AME was formulated in OSMITROL as described for the test compounds.
Various polyene macrolide amide derivatives of the invention were evaluated for their protective effect when administered intraperitoneally once daily for 5 days to immunocompetent mice challenged with live C. albicans.
C. albicans was grown on Sabouraud dextrose agar (SDA) plates for 48 hr. Colonies were harvested and washed twice by centrifugation in phosphate-buffered saline (PBS). The washed pellets were resuspended in PBS and diluted to achieve the desired number of fungi per milliliter. A portion of the inoculum was plated on SDA plates to determine the colony-forming units (CFU) per milliliter.
Swiss-Webster mice (Simonsen Laboratories, Gilroy, Calif.) were administered by intravenous injection a single inoculum (0.2 mL) containing as estimated 2.0×10^5 CFU of C. albicans. The day of inoculation was designated as study day 0. Beginning three days after injection, mice were treated intraperitoneally with vehicle alone or formulated test compound once daily for 5 consecutive days.
The mice were observed daily from study day 0 through study day 10 (3 days after the last dose). Mice found dead or euthanized in extremis were removed from the study without further processing. Surviving mice were euthanized by inhalation of CO2 on study day 10 and both kidneys from each mouse were removed. Each pair of removed kidneys was homogenized in 3 mL of ice-cold PBS containing 10% glycerol. A portion of each homogenate was used to determine log10 CFU per kidney using SDA plates (48 hours of incubation at 30° C.). Kidney log10 CFU data were analyzed using a t-test. The criterion for a statistically significant response was set at p<0.01.
For comparison, the results for AmB and AME are also provided. Efficacy was defined for individual animals as a greater than 2 log10 reduction in kidney CFU relative to the mean vehicle control value.

A short description of data set [2]: Two week range-finding toxicity study in mice. Format: in vivo, CD-1 mice. Conditions: both sexes, CD-1, mouse, in vivo, iv, intravenous once daily on days 1 to 5 and 8 to 12. On the procedure:
as §1, §2
Various polyene macrolide amide derivatives of the invention were evaluated to characterize their potential toxicity when administered subchronically by intravenous injection.
CD-1® mice (Charles River Laboratories, Portage, Mich.) were acclimated to laboratory conditions for at least 5 days before the start of dosing. During the acclimation period, the general condition of the mice was evaluated, and those considered healthy were used. The mice were randomly assigned to treatment groups using a stratified body weight regimen. Each treatment group consisted of 3 male and 3 female mice. The mice were housed in a room with a controlled environment and provided rodent chow and water ad libitum.
On the first day of dosing, the mice were approximately 7 to 9 weeks old and weighed 22 to 30 g. Doses were administered by intravenous injection once daily on study days 1 to 5 and 8 to 12. Dosages were selected based upon data from efficacy and toxicology studies, and ranged from 1.25 to 30 mg/kg/day. Clinical observations were recorded 0.5 hr after dosing on days 1, 3, 5, 8, 10, 12 and 15, and on any day a change was observed. Body weights were recorded prior to dosing and on study days 8 and 12, and on study day 15 at the completion of the in-life phase of the study.
Animals that were found in a moribund/deteriorating clinical state were euthanized (animal designated killed in extremis) by inhalation of CO2. The day of death for any animal found dead or killed in extremis was recorded. Any animal that died prematurely was removed from the study without further processing.
One day after completion of dosing (study day 16), all surviving mice were euthanized by inhalation of CO2. Their kidneys were preserved for histopathologic examination. The maximum no-observed-adverse-effect level (NOAEL) was determined on the basis of clinical and histopathologic findings. The values for AmB and AME are provided for comparison.

Data set [3] is described as follows: Ascending single-dose nephrotoxicity study in rabbits. Format: in vivo, Female New Zealand white rabbits. The settings on record: female, New Zealand white, rabbit, in vivo, ascending single intravenous infusion doses, urine volume, BUN, creatinine, read-out: NOAEL acute rabbit. On the procedure: as §1
AmB and AME were also tested for comparison. For AmB, the commercially available FUNGIZONE (Bristol-Meyers Squibb Co.) was used. […]
Various polyene macrolide amide derivatives of the invention were evaluated to determine the intravenous dose of administered compound that produces nephrotoxicity in rabbits. Nephrotoxicity was monitored by measuring urine volume and blood urine nitrogen (BUN) and creatinine. […]
Ascending single doses were administered by intravenous infusion into an ear vein at a rate of 0.6 mL/min. […] Body weights were recorded before each dose, as well as 2 days after the last dose. Blood samples were collected from the rabbits two days prior to the first dose (study day −2) and approximately 24 hr after each dose and analyzed for BUN and creatinine. […]

Like-named read-outs stand apart in the source and are kept apart here.

What is called ED50 is the dose at which the effect has come halfway, by size or by number of responders. A word on the NOAEL: it is the highest dose or exposure tested at which no adverse effect was seen. Turning to `C[C@@H]1[C@H](O)[C@@H](C)/C=C/C=C/C=C/C=C/C=C/C=C/C=C/[C@H](O[C@@H]2O[C@H](C)[C@@H](O)[C@H](N)[C@@H]2O)C[C@@H]2O[C@](O)(C[C@@H](O)C[C@@H](O)[C@H](O)CC[C@@H](O)C[C@@H](O)CC(=O)O[C@H]1C)C[C@H](O)[C@H]2C(=O)O` [AMB, amphotericin B, reference compound], the “effective in % of mice” value in data set [1] (2 mg/kg/day intraperitoneally) is on record as 20%; in data set [1] (4 mg/kg/day intraperitoneally) it was 60%; in data set [1] (8 mg/kg/day intraperitoneally), 100%; in data set [1] (16 mg/kg/day intraperitoneally), 78%. The ED50 in data set [1] (Candida albicans, ip, 120 h, intraperitoneally once daily for 5 days, immunocompetent mice, C. albicans, 50% of animals with 2 log10 reduction in kidney CFU, read-out: ED50 mice 5 day) is 3 mg/kg; in data set [1] (intraperitoneally, 5 day kidney bioburden model, calculated), 3 mg/kg/day. Also, the no observed adverse effect level (NOAEL) at 2 week was 0.5 mg/kg in data set [2] (clinical findings, read-out: NOAEL 2 week mice clinical) and 0.85 mg/kg in data set [2] (histopathologic (kidney) findings, read-out: NOAEL 2 week mice histological). Further, the no observed adverse effect level (NOAEL) in data set [3] stood at 0.375 mg/kg.
